In PMC9255384 (Journal of medicinal chemistry, 2021):

Test system: Caco-2
Test: Monolayer Caco-2 permeability experiment
Assay type: in vitro ADME

cellular permeability (Caco-2)	Structure (SMILES)
limited cellular permeability	CSc1nc(-c2cccc(NC(=O)c3c(F)ccc(O)c3CN3C(=O)c4ccccc4C3=O)c2)c(-c2ccnc(NC(C)=O)c2)[nH]1 [Compound 2c, N-(3-(5-(2-acetamidopyridin-4-yl)-2-(methylthio)-1H-imidazol-4-yl)phenyl)-2-((1,3-dioxoisoindolin-2-yl)methyl)-6-fluoro-3-hydroxybenzamide]
limited cellular permeability	C=CC(=O)Nc1ccc(OC)c(Nc2cc(-c3[nH]c(SC)nc3-c3cccc(NC(=O)c4c(F)ccc(O)c4CN4C(=O)c5ccccc5C4=O)c3)ccn2)c1 [Compound 1, N-(3-(5-(2-((5-acrylamido-2-methoxyphenyl)amino)pyridin-4-yl)-2-(methylthio)-1H-imidazol-4-yl)phenyl)-2-((1,3-dioxoisoindolin-2-yl)methyl)-6-fluoro-3-hydroxybenzamide]
